Measurements: article PMC7316778 (Nature Communications, 2020)
Values joined by “and” are separate entries in the source; they are usually repeats but may differ in a detail not shown here. Equal values may be shown once. Read-outs that look alike come from different tables or passages of the source.

Assays:
FYN = FYN (Homo sapiens, UniProt P06241); assay: SelectScreen kinase assay
Description: (§1) Selectivity profiling assays were performed by the Invitrogen SelectScreen™ Services. […] The concentration of ATP was selected to be equal to the KM, unless indicated otherwise.

HCK = HCK (Homo sapiens, UniProt P08631); assay: SelectScreen kinase assay
Description: as §1

CAMK2B (CaMKII beta) = CAMK2B (CaMKII beta) (Homo sapiens, UniProt Q13554); assay: SelectScreen kinase assay
CAMK2B (CaMKII beta), sequence (Q13554 whole entry): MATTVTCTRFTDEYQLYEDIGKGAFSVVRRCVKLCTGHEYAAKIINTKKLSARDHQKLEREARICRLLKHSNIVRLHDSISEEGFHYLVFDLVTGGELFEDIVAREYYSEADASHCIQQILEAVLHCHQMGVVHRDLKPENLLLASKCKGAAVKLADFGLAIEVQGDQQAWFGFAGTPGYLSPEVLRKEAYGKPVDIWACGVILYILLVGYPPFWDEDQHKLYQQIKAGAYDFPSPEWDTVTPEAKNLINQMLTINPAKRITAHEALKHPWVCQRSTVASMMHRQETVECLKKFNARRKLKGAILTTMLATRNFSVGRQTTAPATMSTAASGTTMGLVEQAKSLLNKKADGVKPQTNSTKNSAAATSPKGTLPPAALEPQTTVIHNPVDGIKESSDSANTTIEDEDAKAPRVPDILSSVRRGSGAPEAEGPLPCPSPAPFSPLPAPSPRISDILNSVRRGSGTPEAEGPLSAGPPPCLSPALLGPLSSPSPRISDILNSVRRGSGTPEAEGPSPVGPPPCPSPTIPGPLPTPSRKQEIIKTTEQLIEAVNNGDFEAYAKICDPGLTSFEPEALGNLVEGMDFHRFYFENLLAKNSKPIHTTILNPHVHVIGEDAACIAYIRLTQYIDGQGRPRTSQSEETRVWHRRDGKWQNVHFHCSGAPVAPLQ
Description: as §1

IRAK3 = target: T1, IRAK3 (Homo sapiens, UniProt Q9Y616); assay: SelectScreen kinase assay
T1 sequence (Q9Y616 1-596): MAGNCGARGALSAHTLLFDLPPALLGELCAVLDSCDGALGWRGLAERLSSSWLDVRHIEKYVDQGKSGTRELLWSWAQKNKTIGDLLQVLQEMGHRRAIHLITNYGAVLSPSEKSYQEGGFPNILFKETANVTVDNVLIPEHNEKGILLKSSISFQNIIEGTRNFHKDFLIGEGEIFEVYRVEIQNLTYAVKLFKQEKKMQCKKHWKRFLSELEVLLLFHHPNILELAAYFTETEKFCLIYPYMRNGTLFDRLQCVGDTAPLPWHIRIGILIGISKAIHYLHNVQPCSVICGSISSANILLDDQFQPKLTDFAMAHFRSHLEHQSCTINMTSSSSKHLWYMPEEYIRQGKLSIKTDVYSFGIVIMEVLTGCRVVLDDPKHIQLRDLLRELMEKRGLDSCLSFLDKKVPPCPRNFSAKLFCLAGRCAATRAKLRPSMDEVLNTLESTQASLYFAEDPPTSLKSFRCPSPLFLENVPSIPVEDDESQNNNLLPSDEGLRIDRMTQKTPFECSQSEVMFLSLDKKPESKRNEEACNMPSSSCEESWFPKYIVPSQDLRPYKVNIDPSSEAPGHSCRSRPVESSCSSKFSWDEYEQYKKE
Description: as §1

endogenous FES^S700C = endogenous FES^S700C (Homo sapiens, UniProt P07332, S700C); assay: In situ target engagement in live HL-60 macrophages (WEL033 post-labeling); assay type: cell-based; parameters: endogenous in cells; host or cells: HL-60 FES^S700C clone, differentiated to macrophages or neutrophils; conditions: for Relative FES labeling (%) Mean: Supplementary Figure 13b
endogenous FES^S700C, sequence (P07332 whole entry S700C): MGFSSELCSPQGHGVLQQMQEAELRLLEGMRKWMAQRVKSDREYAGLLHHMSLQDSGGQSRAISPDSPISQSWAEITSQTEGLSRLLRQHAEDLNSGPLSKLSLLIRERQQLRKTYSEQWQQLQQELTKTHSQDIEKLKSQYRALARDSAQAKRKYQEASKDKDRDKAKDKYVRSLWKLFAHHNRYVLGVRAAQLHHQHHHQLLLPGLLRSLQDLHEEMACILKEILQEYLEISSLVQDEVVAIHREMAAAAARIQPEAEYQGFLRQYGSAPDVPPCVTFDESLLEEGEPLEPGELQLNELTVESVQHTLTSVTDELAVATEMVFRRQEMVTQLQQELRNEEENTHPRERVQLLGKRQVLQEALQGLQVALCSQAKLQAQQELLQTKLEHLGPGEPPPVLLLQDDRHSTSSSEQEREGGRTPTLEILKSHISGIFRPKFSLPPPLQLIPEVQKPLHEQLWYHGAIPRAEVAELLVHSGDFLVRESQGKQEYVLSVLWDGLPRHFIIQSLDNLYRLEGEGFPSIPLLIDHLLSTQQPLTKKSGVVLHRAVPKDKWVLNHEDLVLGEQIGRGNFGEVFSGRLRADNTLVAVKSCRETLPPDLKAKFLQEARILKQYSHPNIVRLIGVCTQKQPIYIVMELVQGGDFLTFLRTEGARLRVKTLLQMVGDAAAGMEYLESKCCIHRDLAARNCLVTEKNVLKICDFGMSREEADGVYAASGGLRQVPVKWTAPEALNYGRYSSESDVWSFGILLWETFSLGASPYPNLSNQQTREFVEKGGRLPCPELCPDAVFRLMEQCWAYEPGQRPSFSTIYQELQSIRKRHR
Text: and harvested. […] Band intensities were
Values represent means of fold enrichment (n

CSNK1D (CK1 delta) = CSNK1D (CK1 delta) (Homo sapiens, UniProt P48730); assay: SelectScreen kinase assay; conditions: 1 h, 1 μM WEL028, 1 h preincubation
Description: as §1

PIK3C2B (PI3K-C2 beta) = PIK3C2B (PI3K-C2 beta) (Homo sapiens, UniProt O00750); assay: SelectScreen kinase assay
Description: as §1

MST1R (RON) = MST1R (RON) (Homo sapiens, UniProt Q04912); assay: SelectScreen kinase assay
MST1R (RON), sequence (Q04912 25-1400): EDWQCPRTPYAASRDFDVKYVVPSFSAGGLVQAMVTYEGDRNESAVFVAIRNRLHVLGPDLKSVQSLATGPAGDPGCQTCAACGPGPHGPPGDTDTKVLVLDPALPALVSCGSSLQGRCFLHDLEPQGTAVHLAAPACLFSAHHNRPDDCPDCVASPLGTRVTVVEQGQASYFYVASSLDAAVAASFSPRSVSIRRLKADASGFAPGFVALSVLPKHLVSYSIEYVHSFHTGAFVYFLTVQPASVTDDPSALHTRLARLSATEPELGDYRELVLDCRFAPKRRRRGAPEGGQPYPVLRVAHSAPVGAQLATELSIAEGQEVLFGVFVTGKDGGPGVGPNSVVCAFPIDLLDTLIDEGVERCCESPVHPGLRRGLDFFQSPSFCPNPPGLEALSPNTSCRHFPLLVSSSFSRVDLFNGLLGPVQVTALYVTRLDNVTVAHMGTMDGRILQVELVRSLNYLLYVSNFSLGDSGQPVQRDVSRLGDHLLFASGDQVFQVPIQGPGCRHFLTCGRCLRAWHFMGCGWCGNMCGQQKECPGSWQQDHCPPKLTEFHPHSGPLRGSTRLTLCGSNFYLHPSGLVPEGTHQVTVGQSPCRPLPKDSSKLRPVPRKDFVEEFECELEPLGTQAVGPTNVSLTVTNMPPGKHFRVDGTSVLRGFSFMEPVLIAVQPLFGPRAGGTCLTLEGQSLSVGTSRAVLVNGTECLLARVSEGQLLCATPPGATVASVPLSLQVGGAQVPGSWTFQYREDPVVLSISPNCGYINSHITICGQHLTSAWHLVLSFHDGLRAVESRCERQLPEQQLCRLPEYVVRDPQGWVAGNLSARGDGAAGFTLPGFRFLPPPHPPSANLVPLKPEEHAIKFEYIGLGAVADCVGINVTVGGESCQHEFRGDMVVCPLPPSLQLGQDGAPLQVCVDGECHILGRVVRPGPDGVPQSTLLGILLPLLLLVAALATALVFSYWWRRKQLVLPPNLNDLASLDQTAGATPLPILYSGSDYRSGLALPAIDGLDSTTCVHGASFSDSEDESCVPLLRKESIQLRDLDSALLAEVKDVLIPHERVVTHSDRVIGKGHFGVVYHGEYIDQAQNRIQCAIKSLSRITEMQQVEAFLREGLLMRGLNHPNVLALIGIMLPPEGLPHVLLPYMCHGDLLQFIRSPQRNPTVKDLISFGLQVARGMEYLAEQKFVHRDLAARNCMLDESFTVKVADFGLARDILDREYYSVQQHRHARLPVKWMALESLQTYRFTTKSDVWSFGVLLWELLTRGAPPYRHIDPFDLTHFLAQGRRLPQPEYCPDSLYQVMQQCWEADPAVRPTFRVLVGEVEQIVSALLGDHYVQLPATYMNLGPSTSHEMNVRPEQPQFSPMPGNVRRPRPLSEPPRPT
Description: as §1

NTRK1 (TRKA) = NTRK1 (TRKA) (Homo sapiens, UniProt P04629); assay: SelectScreen kinase assay
NTRK1 (TRKA), sequence (P04629 33-796): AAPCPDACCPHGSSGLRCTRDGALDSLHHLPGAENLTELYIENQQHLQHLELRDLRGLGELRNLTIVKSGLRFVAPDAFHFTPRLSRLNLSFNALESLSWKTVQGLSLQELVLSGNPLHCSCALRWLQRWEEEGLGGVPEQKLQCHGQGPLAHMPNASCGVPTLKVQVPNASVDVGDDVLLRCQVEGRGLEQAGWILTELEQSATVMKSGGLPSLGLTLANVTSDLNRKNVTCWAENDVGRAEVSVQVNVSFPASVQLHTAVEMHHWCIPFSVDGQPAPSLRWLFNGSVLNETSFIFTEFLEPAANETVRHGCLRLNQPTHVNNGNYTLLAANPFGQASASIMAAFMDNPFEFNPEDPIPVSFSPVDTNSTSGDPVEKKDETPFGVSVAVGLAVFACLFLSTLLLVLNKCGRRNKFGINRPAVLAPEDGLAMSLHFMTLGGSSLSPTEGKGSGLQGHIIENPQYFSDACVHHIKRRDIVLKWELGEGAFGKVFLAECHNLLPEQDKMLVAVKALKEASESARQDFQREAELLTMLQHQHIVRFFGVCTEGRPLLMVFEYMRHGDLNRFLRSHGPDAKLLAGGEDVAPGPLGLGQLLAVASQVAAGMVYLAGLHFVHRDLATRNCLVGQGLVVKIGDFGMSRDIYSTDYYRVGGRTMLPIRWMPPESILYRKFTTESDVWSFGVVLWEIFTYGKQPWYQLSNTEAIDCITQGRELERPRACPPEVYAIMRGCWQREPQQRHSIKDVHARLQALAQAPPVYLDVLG
Description: as §1

MAP2K2 (MEK2) = MAP2K2 (MEK2) (Homo sapiens, UniProt P36507); assay: SelectScreen kinase assay
Description: as §1

MYO3A (MYO3 alpha) = MYO3A (MYO3 alpha) (Homo sapiens, UniProt Q8NEV4); assay: SelectScreen kinase assay
Description: as §1

NIM1K = NIM1K (Homo sapiens, UniProt Q8IY84); assay: SelectScreen kinase assay
Description: as §1

STK17B (DRAK2) = target: T2, STK17B (DRAK2) (Homo sapiens, UniProt O94768); assay: SelectScreen kinase assay
T2 sequence (O94768 1-372): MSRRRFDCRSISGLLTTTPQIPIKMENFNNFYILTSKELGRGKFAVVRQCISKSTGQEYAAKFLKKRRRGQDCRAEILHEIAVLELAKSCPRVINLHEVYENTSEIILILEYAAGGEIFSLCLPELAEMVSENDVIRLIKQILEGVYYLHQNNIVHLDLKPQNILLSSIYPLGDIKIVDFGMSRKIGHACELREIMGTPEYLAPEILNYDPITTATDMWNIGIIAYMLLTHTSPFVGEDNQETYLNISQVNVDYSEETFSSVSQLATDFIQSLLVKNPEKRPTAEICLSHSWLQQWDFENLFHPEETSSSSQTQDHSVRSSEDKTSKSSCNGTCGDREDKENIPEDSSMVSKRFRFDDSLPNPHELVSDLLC
Description: as §1

SPHK1 = SPHK1 (Homo sapiens, UniProt Q9NYA1); assay: SelectScreen kinase assay
SPHK1, sequence (Q9NYA1 whole entry): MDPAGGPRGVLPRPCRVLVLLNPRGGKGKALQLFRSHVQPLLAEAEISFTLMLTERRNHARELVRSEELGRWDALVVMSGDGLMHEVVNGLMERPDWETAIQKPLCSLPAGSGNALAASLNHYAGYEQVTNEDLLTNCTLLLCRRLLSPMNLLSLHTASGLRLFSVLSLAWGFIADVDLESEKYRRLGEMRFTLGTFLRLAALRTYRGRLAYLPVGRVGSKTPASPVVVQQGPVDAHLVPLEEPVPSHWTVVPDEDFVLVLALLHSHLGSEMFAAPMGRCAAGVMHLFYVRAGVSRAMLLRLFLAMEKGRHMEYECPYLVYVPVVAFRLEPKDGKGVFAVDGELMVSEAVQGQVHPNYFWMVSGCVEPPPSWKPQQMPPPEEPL
Description: as §1

PRKCD (PKC delta) = PRKCD (PKC delta) (Homo sapiens, UniProt Q05655); assay: SelectScreen kinase assay; conditions: 1 h, 1 μM WEL028, 1 h preincubation
Description: as §1

MYLK2 (skMLCK) = MYLK2 (skMLCK) (Homo sapiens, UniProt Q9H1R3); assay: SelectScreen kinase assay; conditions: for Inhibition at 1 µM (%): MYLK2 (skMLCK), ZLYTE, ATP Km app
Description: as §1

[1] = 1 h, 1 μM WEL028, 1 h preincubation

HCK, sequence (P08631 whole entry): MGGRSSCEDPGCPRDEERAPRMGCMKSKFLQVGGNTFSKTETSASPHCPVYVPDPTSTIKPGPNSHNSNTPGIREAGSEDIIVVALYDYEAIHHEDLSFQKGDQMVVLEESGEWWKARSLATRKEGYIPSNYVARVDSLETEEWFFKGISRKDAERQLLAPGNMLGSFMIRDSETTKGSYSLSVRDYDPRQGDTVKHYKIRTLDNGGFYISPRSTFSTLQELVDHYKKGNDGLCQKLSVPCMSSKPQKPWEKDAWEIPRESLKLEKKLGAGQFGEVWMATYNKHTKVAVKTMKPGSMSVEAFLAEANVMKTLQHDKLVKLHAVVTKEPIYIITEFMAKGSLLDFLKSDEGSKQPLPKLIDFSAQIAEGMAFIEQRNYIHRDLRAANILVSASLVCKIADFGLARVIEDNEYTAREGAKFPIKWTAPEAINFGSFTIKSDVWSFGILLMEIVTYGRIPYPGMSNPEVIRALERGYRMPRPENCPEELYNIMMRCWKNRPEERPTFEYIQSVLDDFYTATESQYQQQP
FYN, sequence (P06241 whole entry): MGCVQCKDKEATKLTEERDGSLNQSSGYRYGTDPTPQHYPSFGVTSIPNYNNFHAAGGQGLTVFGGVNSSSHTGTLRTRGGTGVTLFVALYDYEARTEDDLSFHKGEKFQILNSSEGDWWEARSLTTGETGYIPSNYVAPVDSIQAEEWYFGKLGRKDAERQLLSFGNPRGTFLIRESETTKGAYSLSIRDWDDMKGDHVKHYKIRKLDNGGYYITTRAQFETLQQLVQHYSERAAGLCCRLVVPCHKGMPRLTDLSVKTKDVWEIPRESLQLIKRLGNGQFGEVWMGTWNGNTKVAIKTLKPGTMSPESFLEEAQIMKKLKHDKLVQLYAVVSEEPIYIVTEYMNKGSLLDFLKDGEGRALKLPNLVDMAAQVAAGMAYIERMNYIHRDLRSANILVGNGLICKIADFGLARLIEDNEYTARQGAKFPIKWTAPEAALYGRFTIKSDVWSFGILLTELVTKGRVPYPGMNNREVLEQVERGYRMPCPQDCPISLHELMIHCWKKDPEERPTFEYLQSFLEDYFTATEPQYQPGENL

In the case of `C#CCOc1ccc(Nc2ncc(Cl)c(Nc3ccccc3NC(=O)C=C)n2)c(OC)c1` [Compound 6], the inhibition at 1 µM (FYN; [1]) is reported as 4%, the “Inhibition at 1 µM (%)” value (FYN; FYN, 1 µM, ZLYTE, ATP Km app, listed as WEL028, 1 µM) is reported as 0% and 8% and the inhibition at 1 µM (HCK; [1]) is reported as 6%. For the same molecule, the “Inhibition at 1 µM (%)” value (HCK; HCK, 1 µM, ZLYTE, ATP Km app, listed as WEL028, 1 µM) was 7%, the inhibition at 1 µM (HCK; read-out: Inhibition at 1 µM (%), HCK, 1 µM, ZLYTE, ATP Km app) was 4% and the inhibition at 1 µM (CAMK2B (CaMKII beta); [1]) was 0%. The “Inhibition at 1 µM (%)” value (CAMK2B (CaMKII beta); CAMK2B (CaMKII beta), 1 µM, ZLYTE, ATP Km app, listed as WEL028, 1 µM) was -1% and 1%, the inhibition at 1 µM (IRAK3; [1]) was 56% and the “Inhibition at 1 µM (%)” value (IRAK3; IRAK3, 1 µM, LanthaScreen Binding, listed as WEL028, 1 µM) was 58%. For the same molecule, the inhibition at 1 µM (IRAK3; read-out: Inhibition at 1 µM (%), IRAK3, 1 µM, LanthaScreen Binding) was 55%, the IC50 (endogenous FES^S700C; live FES^S700C HL-60 macrophages, 1 h, WEL033 1 µM post-labeling, n = 3, read-out: pIC50, relative FES labeling (converted)) was 0.00398 µM and the “Relative FES labeling (%) Mean” value (endogenous FES^S700C; log[WEL028] (M) -6) was 6.696%. The “Relative FES labeling (%) Mean” value (endogenous FES^S700C; log[WEL028] (M) -7) was 2.482%, the “Relative FES labeling (%) Mean” value (endogenous FES^S700C; log[WEL028] (M) -7.52288) was 5.093% and the “Relative FES labeling (%) Mean” value (endogenous FES^S700C; log[WEL028] (M) -8) was 18.898%. The “Relative FES labeling (%) Mean” value (endogenous FES^S700C; log[WEL028] (M) -8.52288) was 58.4122%, the “Relative FES labeling (%) Mean” value (endogenous FES^S700C; log[WEL028] (M) -9) was 92.5647% and the inhibition at 1 µM (CSNK1D (CK1 delta)) was 18%. The inhibition at 1 µM (PIK3C2B (PI3K-C2 beta); 1 h) was -1%, the inhibition at 1 µM (PIK3C2B (PI3K-C2 beta); read-out: Inhibition at 1 µM (%)) was -1% and the inhibition at 1 µM (MST1R (RON); [1]) was 5%. For the same molecule, the “Inhibition at 1 µM (%)” value (MST1R (RON); MST1R (RON), 1 µM, ZLYTE, ATP Km app, listed as WEL028, 1 µM) was 10% and 0%, the inhibition at 1 µM (NTRK1 (TRKA); [1]) was 17% and the “Inhibition at 1 µM (%)” value (NTRK1 (TRKA); NTRK1 (TRKA), 1 µM, ZLYTE, ATP Km app, listed as WEL028, 1 µM) was 16%. It also gave an inhibition at 1 µM (NTRK1 (TRKA); read-out: Inhibition at 1 µM (%), NTRK1 (TRKA), 1 µM, ZLYTE, ATP Km app) of 17%, an IC50 (MAP2K2 (MEK2)) of 0.251 µM and an inhibition at 1 µM (MAP2K2 (MEK2); [1]) of 106%. It also gave an inhibition at 10 µM (MAP2K2 (MEK2); 1 h, log[inhibitor] (M) -5.00, ZLYTE, ATP 100) of 104%, an inhibition at 3.311 µM (MAP2K2 (MEK2); 1 h, log[inhibitor] (M) -5.48, ZLYTE, ATP 100) of 103% and an inhibition at 1.122 µM (MAP2K2 (MEK2); 1 h, log[inhibitor] (M) -5.95, ZLYTE, ATP 100) of 99%. For the same molecule, the inhibition at 0.3715 µM (MAP2K2 (MEK2); 1 h, log[inhibitor] (M) -6.43, ZLYTE, ATP 100) was 68%, the inhibition at 0.123 µM (MAP2K2 (MEK2); 1 h, log[inhibitor] (M) -6.91, ZLYTE, ATP 100) was 38% and the inhibition at 0.04074 µM (MAP2K2 (MEK2); 1 h, log[inhibitor] (M) -7.39, ZLYTE, ATP 100) was 33%. The inhibition at 0.0138 µM (MAP2K2 (MEK2); 1 h, log[inhibitor] (M) -7.86, ZLYTE, ATP 100) was 27%, the inhibition at 0.001514 µM (MAP2K2 (MEK2); 1 h, log[inhibitor] (M) -8.82, ZLYTE, ATP 100) was 16% and the inhibition at 0.0004898 µM (MAP2K2 (MEK2); 1 h, log[inhibitor] (M) -9.31, ZLYTE, ATP 100) was 10%. The inhibition at 0.004571 µM (MAP2K2 (MEK2); 1 h, log[inhibitor] (M) -[…], ZLYTE, ATP 100) was 20%, the Apparent fold selectivity (MAP2K2 (MEK2); IC50 on that kinase divided by IC50 on FES^S700C) was 54 fold and the inhibition at 1 µM (MAP2K2 (MEK2); read-out: Inhibition at 1 µM (%), MAP2K2 (MEK2), 1 µM, ZLYTE, ATP 100) was 109%. The inhibition at 1 µM (MYO3A (MYO3 alpha); [1]) was 17%, the “Inhibition at 1 µM (%)” value (MYO3A (MYO3 alpha); MYO3A (MYO3 alpha), 1 µM, LanthaScreen Binding, listed as WEL028, 1 µM) was 16% and the inhibition at 1 µM (MYO3A (MYO3 alpha); read-out: Inhibition at 1 µM (%), MYO3A (MYO3 alpha), 1 µM, LanthaScreen Binding) was 18%. For the same molecule, the inhibition at 1 µM (NIM1K; [1]) was 2%, the inhibition at 1 µM (NIM1K; read-out: Inhibition at 1 µM (%), NIM1K, 1 µM, ZLYTE, ATP Km app) was 3% and the “Inhibition at 1 µM (%)” value (STK17B (DRAK2); 1 µM, LanthaScreen Binding, listed as WEL028, 1 µM) was 8%. For the same molecule, the inhibition at 1 µM (STK17B (DRAK2); [1]) was 9%, the inhibition at 1 µM (STK17B (DRAK2); read-out: Inhibition at 1 µM (%), 1 µM, LanthaScreen Binding) was 9% and the “Inhibition at 1 µM (%)” value (SPHK1; 1 µM, Adapta, ATP Km app, listed as WEL028, 1 µM) was 4% and 1%. For the same molecule, the inhibition at 1 µM (SPHK1; [1]) was 2%, the inhibition at 1 µM (PRKCD (PKC delta)) was 14% and the inhibition at 1 µM (MYLK2 (skMLCK); [1]) was -3%. For the same molecule, the “Inhibition at 1 µM (%)” value (MYLK2 (skMLCK)) was 2% and the “Inhibition at 1 µM (%)” value (MYLK2 (skMLCK); listed as WEL028, 1 µM) was -8%.
